From PubChem BioAssay (NCI) come the findings set out here.

Among the test systems are PC-3 prostate; UO-31 renal; MALME-3M melanoma; MDA-MB-435; CCRF-CEM leukemia; OVCAR-8 ovarian; MDA-MB-231 breast; HS 578T breast; T-47D breast; HCT-15 colon.
Holding throughout (experiment): DTP human tumour cell line panel, 48 h

Molecules are shown by their SMILES. Several values for one entry are separate records, joined by “and”; a condition that tells them apart may be missing. Equal values may be shown once.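 Interpolation was linear, between the two tested concentrations surrounding the appropriate level; five concentrations were tested over 48 hours in 96-well plates. GI50 = concentration required for 50% inhibition of growth. Definition used: TGI = concentration required for complete inhibition of growth.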

For `CC(C)(C)[Si](C)(C)OC1[C@@H](CNC(=O)NC(=O)CCl)O[C@@H](n2cnc3c(N)ncnc32)[C@H]1O[Si](C)(C)C(C)(C)C` (stereo partly specified), the GI50 – broadly, the concentration that inhibits growth by half – is 0.942 µM in the test on PC-3 prostate; 0.436 µM in the test with UO-31 renal; 0.98 µM with MALME-3M melanoma; 0.798 µM in the test on MDA-MB-435; 0.121 µM with CCRF-CEM leukemia; 0.812 µM with OVCAR-8 ovarian. The GI50 is 0.905 µM in the test with MDA-MB-231 breast, 1.14 µM in the test with HS 578T breast, 1.03 µM in the test on T-47D breast and 0.832 µM with HCT-15 colon. For the same compound, the TGI (as a rule, the concentration giving total growth inhibition) in the test on PC-3 prostate came out at 2.05 µM; in the test on UO-31 renal it was 1.13 µM; in the test on MALME-3M melanoma it was 1.96 µM; with MDA-MB-435, 1.56 µM; in the test on CCRF-CEM leukemia, 0.326 µM; in the test on OVCAR-8 ovarian it was 2.85 µM. In addition, the TGI in the test on MDA-MB-231 breast turned out to be 1.71 µM; with HS 578T breast, 3.17 µM; in the test on T-47D breast, 2.13 µM; in the test with HCT-15 colon, 1.67 µM.
Regarding `Nc1ccccc1O.O.O=C(O)C1[O][Sb][O]C1C(=O)O` (stereo unspecified), the GI50 in the test with PC-3 prostate was 25.8 µM; in the test with UO-31 renal, 9.34 µM; in the test on MALME-3M melanoma it was 1.65 µM; in the test on MDA-MB-435, 16.5 µM; in the test on CCRF-CEM leukemia, 0.713 µM; in the test on OVCAR-8 ovarian it was 14.9 µM. Besides, the GI50 was 23.6 µM in the test on MDA-MB-231 breast, 9.07 µM in the test with HS 578T breast, 12.2 µM with T-47D breast and 19.9 µM in the test with HCT-15 colon. In addition, the concentration for total growth inhibition (TGI) in the test on PC-3 prostate was greater than 100 µM; in the test on UO-31 renal it was 24.5 µM; in the test on MALME-3M melanoma it was 4.97 µM; in the test on MDA-MB-435 it was 30.8 µM; with OVCAR-8 ovarian it was 32.9 µM; with MDA-MB-231 breast, greater than 71.7 µM. Moreover, the concentration for total growth inhibition (TGI) in the test with HS 578T breast was determined as 46.2 µM; with T-47D breast, 34 µM; in the test with HCT-15 colon it was 57.1 µM.
For `C#CCOc1cccc(Nc2ncnc3c(NC(=O)C=C)cccc23)c1`, the GI50 in the test with PC-3 prostate is 15.9 µM; in the test on UO-31 renal, 13.4 µM; in the test on MALME-3M melanoma, 18.5 µM; with MDA-MB-435, 7.14 µM; with CCRF-CEM leukemia it was 16.5 µM; with OVCAR-8 ovarian, 21 µM. Also, the GI50 in the test on MDA-MB-231 breast is 20.7 µM; in the test on HS 578T breast it was 30.3 µM; in the test on T-47D breast it was 18.2 µM; with HCT-15 colon, 12.6 µM. For the same compound, the TGI in the test on PC-3 prostate was 67.1 µM; in the test on UO-31 renal, 87.5 µM; in the test with MALME-3M melanoma, 52 µM; in the test on MDA-MB-435, 77.7 µM; with CCRF-CEM leukemia, greater than 100 µM; in the test with OVCAR-8 ovarian it was 70.1 µM. Further, the TGI is greater than 100 µM in the test on MDA-MB-231 breast, greater than 100 µM with HS 578T breast, 78.4 µM with T-47D breast and 81.8 µM in the test with HCT-15 colon.
For the compound `NNCCc1ccc(NC(=O)CCCc2ccc(C(=O)Nc3ccccc3N)cc2)cc1`, the GI50 is 12 µM with PC-3 prostate; 4.8 µM with UO-31 renal; 2.71 µM with MALME-3M melanoma; 9.71 µM with MDA-MB-435; 3.35 µM with CCRF-CEM leukemia; 8.52 µM in the test on OVCAR-8 ovarian. Moreover, the GI50 in the test on MDA-MB-231 breast was 17.4 µM; with HS 578T breast, 37.8 µM; in the test with T-47D breast, 4.34 µM; in the test with HCT-15 colon, 45.6 µM. For the same compound, the TGI with PC-3 prostate was greater than 100 µM; with UO-31 renal, 53.6 µM; in the test with MALME-3M melanoma, 50.8 µM; in the test on MDA-MB-435, greater than 100 µM; with CCRF-CEM leukemia, greater than 100 µM; with OVCAR-8 ovarian, greater than 100 µM. Also, the TGI in the test on MDA-MB-231 breast, in the test on HS 578T breast, with T-47D breast and in the test with HCT-15 colon was greater than 100 µM each time.
With `CN(C)C(=S)SSC(=S)N(C)C`, the concentration for total growth inhibition (TGI) was 26.6 µM and > 100 µM and 32 µM in the test on PC-3 prostate; 28.7 µM and > 46.4 µM and 94 µM in the test on UO-31 renal; 34.7 µM and 50.1 µM and 31 µM with MALME-3M melanoma; 38.6 µM and 33.5 µM and > 56.7 µM in the test on MDA-MB-435; 37.2 µM and 5.68 µM in the test with CCRF-CEM leukemia; 30.5 µM and 65.8 µM and 36.1 µM in the test on OVCAR-8 ovarian. Also, the TGI is 42.9 µM and 32 µM and 53.5 µM with MDA-MB-231 breast; 40.9 µM and > 100 µM and > 90.6 µM with HS 578T breast; 41.7 µM and 39 µM and 88.2 µM with T-47D breast; 29.4 µM and > 100 µM and 31 µM with HCT-15 colon. In addition, the GI50 was 15 µM in the test on UO-31 renal; 16.3 µM with MALME-3M melanoma; 15.6 µM and 8.04 µM and 21.1 µM with MDA-MB-435; 15.8 µM and 5.61 µM and 16.4 µM in the test with OVCAR-8 ovarian; 15.2 µM and > 100 µM and 45 µM in the test on HS 578T breast; 15.9 µM in the test with T-47D breast. Further, in the test with HCT-15 colon, the GI50 was 13.4 µM and 47.9 µM and 13.5 µM.
On to `ClCCN(CCCl)c1ccc(CNc2ccccc2)cc1`, for which the GI50 was 11.6 µM in the test on PC-3 prostate; 4.86 µM with UO-31 renal; 21.8 µM with MALME-3M melanoma; 12 µM in the test on MDA-MB-435; 4.12 µM in the test on CCRF-CEM leukemia; 6.34 µM in the test with OVCAR-8 ovarian. Moreover, the GI50 was 28.5 µM in the test on MDA-MB-231 breast, 12.4 µM in the test on HS 578T breast, 5.91 µM in the test on T-47D breast and 10.4 µM in the test with HCT-15 colon. Moreover, the TGI with PC-3 prostate is greater than 100 µM; in the test on UO-31 renal, 42.3 µM; with MALME-3M melanoma, 76.8 µM; with MDA-MB-435, greater than 100 µM; with CCRF-CEM leukemia, greater than 100 µM; in the test on OVCAR-8 ovarian it was greater than 100 µM. The TGI in the test with MDA-MB-231 breast was greater than 100 µM; in the test with HS 578T breast, 83.2 µM; in the test with T-47D breast it was greater than 100 µM; with HCT-15 colon, greater than 100 µM.
